Source: patent publication US20210255193A1, “LYSINE REACTIVE PROBES AND USES THEREOF” (The Scripps Research Institute, priority 2017, published 2021)
Each block holds one compound with its values, some of them ahead of it.

Columns and labels:
Assay in all cases: competitive isoTOP-ABPP
Format in all cases: binding
[1] = molecular target: T1, IDH3B Isocitrate dehydrogenase (Homo sapiens, UniProt O43837)
T1 construct: isoTOP-ABPP experiments performed in cell lysates (in vitro); endogenous in cells; host or cells: MDA-MB-231 soluble lysate
Summary of the method: (§1)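 Lysine engagement is reported as R, the MS1 peak-area ratio of heavy-tagged DMSO to light-tagged compound samples. Final fragment concentrations were 50 μM for activated esters and 100 μM for guanidinylating agents; STP-alkyne probe 0.1 mM, 1 h.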

[2] = molecular target: T2, CCDC173 Coiled-coil domain-containing protein 173 (Homo sapiens, UniProt Q0VFZ6); settings: 50 uM, in vitro
T2 construct: isoTOP-ABPP experiments performed in cell lysates (in vitro); endogenous in cells; host or cells: soluble proteome of human cancer cell lines (MDA-MB-231, Ramos, Jurkat)
Summary of the method: as §1

[3] = molecular target: T3, EIF5A2 Eukaryotic translation initiation factor 5A-2 (Homo sapiens, UniProt Q9GZV4); settings: 50 uM, in vitro
T3 construct: isoTOP-ABPP experiments performed in cell lysates (in vitro); endogenous in cells; host or cells: soluble proteome of human cancer cell lines (MDA-MB-231; Ramos and Jurkat also prepared)
Summary of the method: as §1

CCNA2 Cyclin-A2 = molecular target: T4, CCNA2 Cyclin-A2 (Homo sapiens, UniProt P20248); settings: 50 uM, in vitro
T4 construct: isoTOP-ABPP experiments performed in cell lysates (in vitro); endogenous in cells; host or cells: soluble proteome of human cancer cell lines (MDA-MB-231; Ramos and Jurkat also prepared)
Summary of the method: as §1

[4] = molecular target: T5, ACIN1 Apoptotic chromatin condensation inducer in the nucleus (Homo sapiens, UniProt Q9UKV3); settings: 50 uM_231_sol_in vitro
T5 construct: endogenous in cells; host or cells: MDA-MB-231 lysate
Summary of the method: as §1

T4 sequence (P20248 whole entry): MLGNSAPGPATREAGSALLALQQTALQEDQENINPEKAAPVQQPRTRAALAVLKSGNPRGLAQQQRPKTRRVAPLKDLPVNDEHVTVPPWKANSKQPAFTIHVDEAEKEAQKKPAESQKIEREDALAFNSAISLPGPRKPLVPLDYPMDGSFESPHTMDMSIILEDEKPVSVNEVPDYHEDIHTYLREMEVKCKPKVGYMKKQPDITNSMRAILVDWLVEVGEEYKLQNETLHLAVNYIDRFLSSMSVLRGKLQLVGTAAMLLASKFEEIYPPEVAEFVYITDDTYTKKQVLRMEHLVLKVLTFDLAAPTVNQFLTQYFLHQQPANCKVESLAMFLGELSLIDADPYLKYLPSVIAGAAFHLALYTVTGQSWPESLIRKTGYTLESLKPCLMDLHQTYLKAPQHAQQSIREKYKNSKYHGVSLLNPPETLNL
T2 sequence (Q0VFZ6 whole entry, the tested form may be a part): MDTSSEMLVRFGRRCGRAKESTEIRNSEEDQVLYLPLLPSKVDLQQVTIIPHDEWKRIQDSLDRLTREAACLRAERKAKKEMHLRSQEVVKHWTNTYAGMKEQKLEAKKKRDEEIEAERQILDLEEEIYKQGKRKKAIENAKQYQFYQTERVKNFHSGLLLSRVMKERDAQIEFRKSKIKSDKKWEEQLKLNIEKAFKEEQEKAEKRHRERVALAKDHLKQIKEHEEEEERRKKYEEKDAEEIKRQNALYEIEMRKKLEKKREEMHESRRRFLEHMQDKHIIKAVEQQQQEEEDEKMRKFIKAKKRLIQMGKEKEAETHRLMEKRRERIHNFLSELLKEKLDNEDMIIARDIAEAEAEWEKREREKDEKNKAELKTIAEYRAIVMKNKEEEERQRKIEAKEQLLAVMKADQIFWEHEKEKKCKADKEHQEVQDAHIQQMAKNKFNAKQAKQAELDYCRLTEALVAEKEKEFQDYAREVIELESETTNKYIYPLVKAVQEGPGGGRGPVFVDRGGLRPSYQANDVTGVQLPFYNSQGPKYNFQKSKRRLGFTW
T3 sequence (Q9GZV4 whole entry): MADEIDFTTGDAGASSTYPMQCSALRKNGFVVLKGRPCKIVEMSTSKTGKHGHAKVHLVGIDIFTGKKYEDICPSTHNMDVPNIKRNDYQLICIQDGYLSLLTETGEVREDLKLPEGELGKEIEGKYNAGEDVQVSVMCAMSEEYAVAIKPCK
T5 sequence (Q9UKV3 whole entry): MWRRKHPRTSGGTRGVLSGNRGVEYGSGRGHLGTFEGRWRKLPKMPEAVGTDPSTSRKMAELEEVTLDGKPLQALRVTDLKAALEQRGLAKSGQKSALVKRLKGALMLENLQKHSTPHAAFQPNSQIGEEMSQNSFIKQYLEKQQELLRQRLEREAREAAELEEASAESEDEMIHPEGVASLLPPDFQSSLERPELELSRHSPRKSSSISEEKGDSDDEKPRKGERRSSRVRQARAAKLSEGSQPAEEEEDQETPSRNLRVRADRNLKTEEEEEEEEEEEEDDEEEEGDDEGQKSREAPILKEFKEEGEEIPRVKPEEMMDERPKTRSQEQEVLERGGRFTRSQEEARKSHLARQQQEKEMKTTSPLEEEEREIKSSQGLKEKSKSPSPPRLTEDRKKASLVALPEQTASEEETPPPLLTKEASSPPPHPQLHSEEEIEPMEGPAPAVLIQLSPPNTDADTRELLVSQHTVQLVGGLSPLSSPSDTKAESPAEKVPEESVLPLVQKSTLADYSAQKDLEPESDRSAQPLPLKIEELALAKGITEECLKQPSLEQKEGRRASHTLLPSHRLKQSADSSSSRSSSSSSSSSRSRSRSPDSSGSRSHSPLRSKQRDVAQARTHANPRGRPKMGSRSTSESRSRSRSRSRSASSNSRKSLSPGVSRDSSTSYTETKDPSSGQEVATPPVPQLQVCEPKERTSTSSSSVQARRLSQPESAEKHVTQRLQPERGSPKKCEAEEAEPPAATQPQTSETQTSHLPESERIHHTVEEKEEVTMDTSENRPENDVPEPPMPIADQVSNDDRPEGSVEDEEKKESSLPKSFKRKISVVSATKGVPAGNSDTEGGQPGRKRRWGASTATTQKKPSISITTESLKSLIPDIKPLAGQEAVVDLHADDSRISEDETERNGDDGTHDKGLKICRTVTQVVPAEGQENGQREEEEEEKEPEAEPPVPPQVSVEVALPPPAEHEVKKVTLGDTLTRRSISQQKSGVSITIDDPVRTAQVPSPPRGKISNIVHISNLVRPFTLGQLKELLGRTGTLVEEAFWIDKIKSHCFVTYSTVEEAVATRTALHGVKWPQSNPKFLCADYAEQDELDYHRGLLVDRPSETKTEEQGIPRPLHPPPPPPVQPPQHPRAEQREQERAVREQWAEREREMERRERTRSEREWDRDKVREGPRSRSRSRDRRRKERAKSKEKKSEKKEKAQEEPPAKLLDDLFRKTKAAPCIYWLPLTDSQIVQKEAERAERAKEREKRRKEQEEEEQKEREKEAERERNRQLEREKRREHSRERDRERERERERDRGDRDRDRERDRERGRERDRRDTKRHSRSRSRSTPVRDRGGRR
T1 sequence (O43837 35-385): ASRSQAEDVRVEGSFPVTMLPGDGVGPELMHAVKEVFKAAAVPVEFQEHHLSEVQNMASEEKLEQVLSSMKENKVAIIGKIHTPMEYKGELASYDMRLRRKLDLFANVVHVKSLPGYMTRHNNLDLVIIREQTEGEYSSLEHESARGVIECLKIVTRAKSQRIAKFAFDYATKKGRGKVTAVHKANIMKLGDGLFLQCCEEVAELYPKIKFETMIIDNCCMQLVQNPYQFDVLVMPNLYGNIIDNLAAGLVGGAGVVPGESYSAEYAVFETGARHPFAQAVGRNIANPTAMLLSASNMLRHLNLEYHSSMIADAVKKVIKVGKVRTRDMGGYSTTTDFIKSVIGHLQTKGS

R value (DMSO/fragment) for probe 1 labeling ([1]; O43837_K207, 50 uM, 231 sol, in vitro): 6.5
SMILES: O=C(Oc1c(F)c(F)c(F)c(F)c1F)C(c1ccccc1)c1ccccc1 [fragment 20, Pentafluorophenyl 2,2-diphenylacetate]

R value (DMSO/fragment) for probe 1 labeling ([2]; Q0VFZ6_K312, 231 sol): 20.0 | R value (DMSO/fragment) for probe 1 labeling ([3]; Q9GZV4_K47, 231 sol): 5.0
SMILES: O=C(Oc1c(F)c(F)c(F)c(F)c1F)c1cc(C(F)(F)F)cc(C(F)(F)F)c1 [fragment 21, Pentafluorophenyl 3,5-bis(trifluoromethyl)benzoate]

SMILES: COc1cc(CCC(=O)Oc2ccc([N+](=O)[O-])cc2[N+](=O)[O-])cc(OC)c1OC [fragment 33, 2,4-Dinitrophenyl 3-(3,4,5-trimethoxyphenyl)propanoate]
isoTOP-ABPP reactivity ratio at lysine P20248_K54 (CCNA2 Cyclin-A2; 231 sol): 5.4

SMILES: O=C(Oc1ccc([N+](=O)[O-])cc1[N+](=O)[O-])c1ccc2ccccc2n1 [fragment 35, 2,4-Dinitrophenyl quinoline-2-carboxylate]
isoTOP-ABPP ratio (R) at liganded lysine Q0VFZ6_K312 ([2]; sol, 231): 14.4

SMILES: O=C(Oc1ccc([N+](=O)[O-])cc1[N+](=O)[O-])c1ccc(-c2ccccc2)cc1 [fragment 37, 2,4-Dinitrophenyl [1,1′-biphenyl]-4-carboxylate]
isoTOP-ABPP ratio (R) at liganded lysine P20248_K54 (CCNA2 Cyclin-A2; sol, 231): 0.5

SMILES: O=C(CC12CC3CC(CC(C3)C1)C2)Oc1ccc([N+](=O)[O-])cc1[N+](=O)[O-] [fragment 38, 2,4-Dinitrophenyl 2-(adamantan-1-yl)acetate]
isoTOP-ABPP ratio (R) at liganded lysine Q9GZV4_K47 ([3]; sol, 231): 1.8

SMILES: N#Cc1ccc(C(=O)Oc2ccc([N+](=O)[O-])cc2[N+](=O)[O-])cc1 [fragment 44, 2,4-Dinitrophenyl 4-cyanobenzoate]
isoTOP-ABPP ratio, lysine Q9UKV3_K103 [4]: 1.0

SMILES: O=C(ON1C(=O)CCC1=O)c1cc(C(F)(F)F)cc(C(F)(F)F)c1 [fragment 46, 3,5-Bis(trifluoromethyl)benzoic acid NHS ester]
isoTOP-ABPP ratio, lysine Q9UKV3_K103 [4]: 16.6

isoTOP-ABPP ratio, lysine O43837_K207 ([1]; 100 uM_231_sol_in vitro): 3.1
SMILES: CC(C)(C)OC(=O)N=C(NC(=O)OC(C)(C)C)n1cccn1 [fragment 50, reference compound]
